Measurements from patent US20160022751A1, “NOVEL COMPOSITION FOR TREATING ALZHEIMER'S DISEASE AND IMPROVING COGNITIVE FUNCTION OF ALZHEIMER'S PATIENTS” (GANGNEUNG-WONJU NATIONAL UNIVERSITY INDUSTRY ACADEMY …, priority 2014, published 2016).

How the values were obtained:
[1] = tested on: acetylcholine; conditions: Benishin et al., Pharmacol., 42: 223-229, 1991; cited from earlier work
[2] = tested on: VAChT; assay: VAChT mRNA expression in N2a cells (RT-PCR); format: cell-based, mouse; conditions: single ginsenoside (FIG. 7B)
Description: (§1) The present inventor reported that ChAT overexpressing human neural stem cells restored cognition with an increase of ACh levels in rat model (Park et al., Exp. Neurol., 234: 521-526, 2012). This implies that the increase of the ChAT level in cholinergic neurons plays a critical role in cognition enhancement and thus the cholinergic gene locus “VAChT/ChAT” can be a putative target for therapeutic approaches on AD. Thus the present inventor prepared transfected Neuro-2a (N2a) cells that over-express the human ChAT and APP (designated as “N2a.hChAT” and “N2a.hAPPswe”, respectively, FIG. 6) and the N2a.hChAT and N2a.hAPPswe cells were treated with the faction groups 1 to 5 isolated in the Example 3 at a centration of 50 μg/ml. Neuro-2a mouse neuroblastoma cells (Korean Cell Line Bank, Korea) were grown in DMEM supplemented with 10% fetal bovine serum (FBS), 100 U/m penicillin, and 100 μg/ml streptomycin (Invitrogen, USA) under 5% CO2 at 37° C. in tissue culture flasks. For all experiments, cells were grown to greater than 90% confluency and subjected to no more than 20 cell passages. The medium was changed every 2-3 days. Subconfluent cells were harvested and seeded at a density of 5×10^5 cells or 5×10^6 cells in poly-L-lysine-coated 35 mm or 60 mm culture plates. To recover the cells that are not completely saturated for analysis, poly-L-lysine coated 35 mm or 60 mm culture was seeded at a concentration of 5×10^5 or 5×10^6 cells on the plates. The extent of expression of hChAT and APP in the N2a.hChAT and N2a.hAAPswe cells treated with the faction groups 1 to 5 was quantified with RT-PCR using primers described in the below Table 2. At this time, beta-actin was used as an internal control.
(§2) Specifically, total RNA extracts from N2a cells were prepared using the Trizol method (Invitrogen, USA) and cDNA was synthesized from RNA by reverse transcription of 1 μg of total RNA using a reverse transcription system (Improm-II, Promega, USA) and oligo dT primers in a total volume of 20 μL. PCR amplification was performed using the primers described in Table 2 (Bioneer, Korea). Quantitative real-time PCR reactions were run on a Rotor-Gene 6000 (Corbett Research, Australia) using SensiMix™ SYBR Hi-ROX Kit (Bioline, U.K.) in 20 μL reaction mixtures. Each real-time-PCR master mix contained 10 μL 2× enzyme master mix, 7.0 μL RNase free water, 1 μL of each primer (10 pM each), and 1 μL diluted template. The PCR was performed with an initial pre-incubation step for 15 min at 95° C., followed by 45 cycles of 95° C. for 15 s, annealing at 52° C. for 15 s, and extension at 72° C. for 10 s. Melting curve analysis was used to confirm formation of the expected PCR product, and products from all assays were additionally tested with 1.2% agarose gel electrophoresis to confirm the correct lengths. An inter-run calibrator was used, and a standard curve was created for each gene to obtain PCR efficiencies. Relative sample expression levels were calculated using Rotor-Gene 6000 Series Software 1.7, and were expressed relative to β-actin and corrected for between-run variability. Data for the experimental samples were expressed as a fold unit the internal control gene.
(§3) In order to examine whether five ginsenosides affect the expression of ChAT related to the synthesis of acetylcholine and VAChT controlling extracellular secretion of acetylcholine, the present inventor analyzed the expression level of ChAT and VAChT after treating the five ginsenosides to N2a […] cells, respectively.

[3] = tested on: ChAT; assay: ChAT mRNA expression in N2a cells (RT-PCR); format: cell-based, mouse; conditions: single ginsenoside (FIG. 7A)
Description: as §1, §2, §3

Structure (SMILES)	release of acetylcholine (ACh) from hippocampal slices [1]	expression of VAChT mRNA [2]	expression of ChAT mRNA [3]
CC(C)=CCC[C@](C)(O[C@@H]1O[C@H](CO[C@@H]2O[C@H](CO)[C@@H](O)[C@H](O)[C@H]2O)[C@@H](O)[C@H](O)[C@H]1O)[C@H]1CC[C@]2(C)[C@@H]1[C@H](O)C[C@@H]1[C@@]3(C)CC[C@H](O[C@@H]4O[C@H](CO)[C@@H](O)[C@H](O)[C@H]4O[C@@H]4O[C@H](CO)[C@@H](O)[C@H](O)[C@H]4O)C(C)(C)[C@@H]3CC[C@]12C [ginsenoside Rb1]	facilitate the release of acetylcholine	no significant increase	no significant increase
CC(C)=CCC[C@](C)(O[C@@H]1O[C@H](CO)[C@@H](O)[C@H](O)[C@H]1O)[C@H]1CC[C@]2(C)[C@@H]1[C@H](O)C[C@@H]1[C@@]3(C)CC[C@H](O)C(C)(C)[C@@H]3[C@@H](O[C@@H]3O[C@H](CO)[C@@H](O)[C@H](O)[C@H]3O)C[C@]12C [ginsenoside Rg1]	–	no significant increase	no significant increase
